Data reported in patent publication US20250197420A1, “MACROCYCLIC COMPOUNDS, COMPOSITIONS, AND METHODS OF USING THEREOF” (Sionna Therapeutics Inc., priority 2022, published 2025).

What was measured:
[1] = biological target: T1, Purified recombinant NBD1 (Homo sapiens, UniProt P13569); experiment: Aggregation analysis using differential static light scattering (DSLS): thermal stability of NBD1; assay type: binding; conditions: NBD1 0.2 mg/ml; Tagg of compound well minus average Tagg of DMSO control wells
T1 construct: Purified recombinant NBD1 was produced using previously described methods; made in house
T1 sequence (P13569 423-646 limits assumed): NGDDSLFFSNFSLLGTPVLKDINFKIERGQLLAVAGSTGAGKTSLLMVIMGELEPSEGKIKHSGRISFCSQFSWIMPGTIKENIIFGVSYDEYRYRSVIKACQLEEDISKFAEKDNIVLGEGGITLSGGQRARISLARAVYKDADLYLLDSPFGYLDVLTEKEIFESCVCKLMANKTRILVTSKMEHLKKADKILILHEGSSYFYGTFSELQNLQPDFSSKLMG
Method: Purified recombinant NBD1 was produced using previously described methods (A. Schmidt, J. L. Mendoza, P. J. Thomas (2011) Biochemical and Biophysical Approaches to Probe CFTR Structure (365-376) M. D. Amaral, K. Kunzelmann (eds.), Cystic Fibrosis, Methods in Molecular Biology 741, Springer Science+Business Media). The effect of test compounds on thermal stability of NBD1 was evaluated by differential static light scattering (DSLS) using the Harbinger Stargazer-384 instrument (Epiphyte Three, Toronto, Canada). Test compounds were dissolved and diluted to desired concentrations in 100% DMSO. The compounds or DMSO controls (100 nL) were stamped into wells of a […] low volume optical plate (Corning Inc., Corning, NY) using the Echo 555 acoustic liquid handler (Labcyte Inc., San Jose, CA).
NBD1 protein was diluted to 0.2 mg/ml in S200 buffer (50 mM Tris-HCl, 150 mM NaCl, 5 mM MgCl2, 2 mM ATP, 2 mM DTT, pH7.6) containing 1% glycerol. 10 uL of protein solution was aliquoted into the 384-well plate harboring the test compounds and 10 uL mineral oil was overlaid onto the protein solution, using the epMotion robotic liquid handler (Eppendorf North America, Hauppauge, NY). After placing into the Stargazer instrument, the plate was heated at 1° C. per minute to 70° C. Images were captured from 25° C. to 70° C. every 0.5° C. At the end of the experiment run, instrument software integrated image files and analyzed data automatically. A […] regression curve was generated for each well, representing the increase in light scattering over time. A temperature of aggregation (Tagg) was calculated based on the inflection point of the curve. To better compare data across experiments the average Tagg for DMSO control wells was calculated and subtracted from values for wells containing compounds to obtain a “ΔTagg” value. These ΔTagg values reflect stabilizing efficacy of the compounds. As set forth in Table 2 below, an ΔTagg value less than or equal to 5° C. is marked “A”; a value above 5° C. and less than or equal to 10° C. is marked “B”; a value greater than 10° C. and less than or equal to 25° C. is marked “C”.

[2] = system: Primary human bronchial epithelial cells from a ΔF508 homozygous CF donor (CF-HBE cells); experiment: TECC24 recording of CFTR-mediated transepithelial chloride transport, AUC fold over benchmark VX-809 @10 μM; assay type: cell-based; conditions: 48 hours incubation, AUC of forskolin-stimulated IEQ
Method: The effects of a test agent on CFTR-mediated transepithelial chloride transport is measured using TECC24 recording analysis. Test agents are solubilized in DMSO. Solubilized test agents are mixed with incubation medium containing DMEM/F12, Ultroser G (0.5%; Crescent Chemical, catalog #67042), Hyclone Fetal Clone II (2%; GE Healthcare, catalog #SH30066.02), bovine brain extract (0.25%; Lonza, catalog #CC-4098), insulin ([…]), IL-13 (10 ng/mL), hydrocortisone (20 nM), transferrin ([…]), triiodothyronine (500 nM), ethanolamine (250 nM), epinephrine (1.5 μM), phosphoethanolamine (250 nM), and retinoic acid (10 nM). Primary human bronchial epithelial cells from a ΔF508 homozygous CF donor (CF-HBE cells; from University of North Carolina Cystic Fibrosis Tissue Procurement Center), grown on Transwell HTS 24-well cell culture inserts (Costar, catalog #3378), are exposed to test agents or controls dissolved in incubation medium. The CF-HBE cells are cultured at 36.5° C. for 48 hours before TECC24 recordings are performed in the presence or absence of test agent, a positive control or vehicle (DMSO).
Following incubation, the transwell cell culture inserts containing the test agent or control-treated CF-HBE cells are loaded onto a TECC24 apparatus (TECC v7 or MTECC v2; EP Design) to record the transepithelial voltage (VT) and resistance (TEER) using 4 AgCl electrodes per well configured in current-clamp mode. The apical and basolateral bath solutions both contain (in mM) 140 NaCl, 5 KCl, 2 CaCl2), 1 MgCl2, 10 Hepes, and 10 glucose (adjusted to pH 7.4 with NaOH). To inhibit basal Na+ absorption, the ENaC inhibitor benzamil (10 μM) is added to the bath. Then, the adenylate cyclase activator, forskolin (10 μM), is added to the bath to activate CFTR. The forskolin-stimulated Cl− transport is halted by addition of CFTR inhibitor-172 (20 μM) to the bath at the end of the experiment to confirm specificity. VT and TEER recordings are digitally acquired at routine intervals using TECC or MTECC software (EP Design). VT and TEER are transformed into equivalent transepithelial Cl− current (IEQ), and the Area Under the Curve (AUC) of the IEQ time course between forskolin and CFTR inhibitor-172 addition is generated using Excel (Microsoft). Efficacy is expressed as the ratio of the test agent AUC divided by vehicle AUC. EC50s based on AUC are generated using the non-linear regression log(agonist) vs. response function in Prism software (Graphpad) with HillSlope fixed=1.
If a test agent increases the AUC of the forskolin-stimulated IEQ relative to VX-809 in CF-HBE cells, and this increase is inhibited by CFTR inhibitor-172, then the test agent is considered a CFTR corrector. TECC assay efficacy is expressed as the ratio of the test agent AUC divided by VX-809 AUC. As set forth in Table 2 below, a TECC value less than 3 is marked “A”; a value between 3 and 6 is marked “B”; a value between 6 and 20 is marked “C”.

SMILES | DSLS (ΔTagg) [1] | TECC (test agent AUC divided by VX-809 AUC) [2]
CC1(c2cccc(CCC(=O)O)c2)CC(=O)NCCCCCc2c(c(F)cc3[nH]ccc23)Oc2ccc(F)c(c2)-c2ncc1[nH]2 (centres unmarked) [Compound 26, 3-[3-(22,28-Difluoro-6-methyl-8-oxo-24-oxa-3,9,19,30-tetrazapentacyclo[23.3.1.12,5.015,23.016,20]triaconta-1(29),2,4,15,17,20,22,25,27-nonaen-6-yl)phenyl]propanoic acid] | C (a value greater than 10 °C and less than or equal to 25 °C is marked “C”) | B (a value between 3 and 6 is marked “B”)
C[C@@H](Cc1cccc([C@@]2(C)CCCC(C)(C)CN(C)C(=O)CCc3c(c(F)cc4[nH]ccc34)Oc3ccnc(c3)-c3nc2nn3C)c1)C(=O)O [Compound 118, (2S)-3-[3-[(6R)-23-fluoro-3,6,10,10,12-pentamethyl-13-oxo-25-oxa-3,4,12,20,29,31-hexazapentacyclo[24.3.1.12,5.016,24.017,21]hentriaconta-1(30),2(31),4,16,18,21,23,26,28-nonaen-6-yl]phenyl]-2-methyl-propanoic acid] | C (a value greater than 10 °C and less than or equal to 25 °C is marked “C”) | B (a value between 3 and 6 is marked “B”)
CC(Cc1cccc(C2(C)CCCCC(C)(C)N(C)C(=O)OCc3c(c(F)cc4[nH]ccc34)Oc3ccc(F)c(c3)-c3nc2nn3C)c1)C(=O)O (centres unmarked) [Compound 103, 3-[3-(23,29-difluoro-3,6,11,11,12-pentamethyl-13-oxo-14,25-dioxa-3,4,12,20,31-pentazapentacyclo[24.3.1.12,5.016,24.017,21]hentriaconta-1(30),2(31),4,16,18,21,23,26,28-nonaen-6-yl)phenyl]-2-methyl-propanoic acid] | C (a value greater than 10 °C and less than or equal to 25 °C is marked “C”) | A (a TECC value less than 3 is marked “A”)
CN1CC(C)(C)CCCC[C@](C)(c2cccc(CCC(=O)O)c2)c2nc(n(C)n2)-c2cc(ccn2)Oc2c(F)cc3[nH]ccc3c2CC1=O [Compound 123, 3-[3-[(6R)-23-Fluoro-3,6,11,11,13-pentamethyl-14-oxo-25-oxa-3,4,13,20,29,31-hexazapentacyclo[24.3.1.12,5.016,24.017,21]hentriaconta-1(30),2(31),4,16,18,21,23,26,28-nonaen-6-yl]phenyl]propanoic acid] | C (a value greater than 10 °C and less than or equal to 25 °C is marked “C”) | A (a TECC value less than 3 is marked “A”)
O=C(O)CCc1cccc(C2CCCCCCNC(=O)CCc3c(c(F)cc4[nH]ccc34)Oc3ccc(F)c(c3)-c3ncc2[nH]3)c1 (centres unmarked) [Compound 4, 3-[3-(24,30-Difluoro-14-oxo-26-oxa-3,13,21,32-tetrazapentacyclo-[25.3.1.12,5.017,25.018,22]dotriaconta-1(31),2,4,17,19,22,24,27,29-nonaen-6-yl)phenyl]propanoic acid] | C (a value greater than 10 °C and less than or equal to 25 °C is marked “C”) | B (a value between 3 and 6 is marked “B”)
CC1(c2cccc(CCC(=O)O)c2)CCCCNC(=O)OCCc2c(c(F)cc3[nH]ccc23)Oc2ccc(F)c(c2)-c2ncc1[nH]2 (centres unmarked) [Compound 86, 3-[3-(23,29-Difluoro-6-methyl-12-oxo-13,25-dioxa-3,11,20,31-tetrazapentacyclo[24.3.1.12,5.016,24.017,21]hentriaconta-1(30),2,4,16(24),17(21),18,22,26,28-nonaen-6-yl)phenyl]propanoic acid] | C (a value greater than 10 °C and less than or equal to 25 °C is marked “C”) | C (a value between 6 and 20 is marked “C”)
CN1CC(C)(C)CCC(C)(c2cccc(CCC(=O)O)c2)c2cnc([nH]2)-c2cc(ccc2F)Oc2c(F)cc3[nH]ccc3c2CCC1=O (centres unmarked) [Compound 33, 3-[3-(22,28-Difluoro-6,9,9,11-tetramethyl-12-oxo-24-oxa-3,11,19,30-tetrazapentacyclo[23.3.1.12,5.015,23.016,20]triaconta-1(29),2,4,15,17,20,22,25,27-nonaen-6-yl)phenyl]propanoic acid] | B (a value above 5 °C and less than or equal to 10 °C is marked “B”) | A (a TECC value less than 3 is marked “A”)
CN1CC(=O)CCCCCC(C)(c2cccc(CCC(=O)O)c2)c2cnc([nH]2)-c2cc(ccc2F)Oc2c(F)cc3[nH]ccc3c2CC1=O (centres unmarked) [Compound 113, 3-[3-(24,30-Difluoro-6,14-dimethyl-12,15-dioxo-26-oxa-3,14,21,32-tetrazapentacyclo[25.3.1.12,5.017,25.018,22]dotriaconta-1(30),2,4,17(25),18(22),19,23,27(31),28-nonaen-6-yl)phenyl]propanoic acid] | C (a value greater than 10 °C and less than or equal to 25 °C is marked “C”) | A (a TECC value less than 3 is marked “A”)
CN1CC(C)(C)CCCC(C)(c2ccc(CCC(=O)O)cc2)c2cnc([nH]2)-c2cc(ccc2F)Oc2c(F)cc3[nH]ccc3c2CCC1=O (single isomer, unassigned) [Compound 47A, 3-[4-(23,29-Difluoro-6,10,10,12-tetramethyl-13-oxo-25-oxa-3,12,20,31-tetrazapentacyclo-[24.3.1.12,5.016,24.017,21]hentriaconta-1(30),2,4,16,18,21,23,26,28-nonaen-6-yl)phenyl]propanoic acid] | A (an ΔTagg value less than or equal to 5 °C is marked “A”) | A (a TECC value less than 3 is marked “A”)
CN1CC(C)(C)CCCC(C)(c2cccc(CCC(=O)NOCCO)c2)c2cnc([nH]2)-c2cc(ccc2F)Oc2c(F)cc3[nH]ccc3c2CCC1=O (single isomer, unassigned) [Compound 59, 3-[3-(23,29-difluoro-6,10,10,12-tetramethyl-13-oxo-25-oxa-3,12,20,31-tetrazapentacyclo[24.3.1.12,5.016,24.017,21]hentriaconta-1(30),2,4,16,18,21,23,26,28-nonaen-6-yl)phenyl]-N-(2-hydroxyethoxy)propanamide] | B (a value above 5 °C and less than or equal to 10 °C is marked “B”) | A (a TECC value less than 3 is marked “A”)
